Measurements reported in patent publication US20220402883A1, “COMPOUNDS AND METHODS FOR MODULATING RNA FUNCTION” (Arrakis Therapeutics, Inc., priority 2016, published 2022).
Structures can show the parent of a compound that is named as a salt.

Test system: RNA3WJ_0.0.0_5IB_3FAM (3WJ_0.0.0_5IB_3FAM RNA construct)
Assay: Thermal shift binding assay
Details: for Melt. Temp. with cmpd / Shift melt. Temp.: RNA sequence 3WJ_0.0.0_5IB_FAM; for Melt. Temp. with cmpd: melting temperature in presence of compound; for Shift melt. Temp.: with cmpd minus without cmpd; for Temp. Shift: 1 μM RNA, 8 μM compound, 10 mM CacoK pH 7.2, 30 mM NaCl
From the text: Purpose: Test binding of compounds for RNA three way junction (for example, a construct of 38 nt). Thermal shift assay based on established fluorescence quenching assay utilizing FAM as fluorescence tag and Iowa Black as quencher. Tags were attached at the 3′ and 5′ end, respectively. Stable formation of 3WJ upon compound binding would lead to quenching of the FAM fluorescence due to close proximity of the Iowa Black tag. Thermal unfolding leads to increase of fluorescence emission. Assay readout: FAM (465-510 nm) Thermal Shift.
Assay sample buffer used: 10 mM CacoK pH 7.2, 30 mM NaCl. Buffer preparation in Dnase/Rnase Free distilled water (Gibco Life Technologies).
Dilute the RNA 1:10 (final 10 μM) in Assay Buffer.
Heat up the diluted RNA up to 90° C. for 5 min (sealed Eppendorf Tube).
Cool down the RNA probe slowly to RT.
Dilute the compounds to 800 μM in DMSO (Assay: 8 μM). […]
Pipet 20 μL Sample Solution into Roche, Light Cycler480 Multiwell Plate96, white, REF 04729692001.
Measure the 96 plate with the LightCycler480 (Channel: 480/510 nm; Temperature: 41-91° C.).
Analyse measurement-data with the MeltingCurveGenotyping Mode.
Settings: Acquisition mode: continuous; Ramp rate: 0.1° C./sec; Acquisition: 6° C.
Curves are fitted with raw and normalized data.
Melting curves analysis show melting temperature (Tm) of ˜51° C. Range of RNA concentrations was tested and assay window was determined (conc. range of 0.5-1 μM yields best results). The choice of buffer also affected the Tm. RNA constructs were tested under different buffer conditions (especially in presence of salt) in the thermal shift assay. […] CacoK with 30 mM salt at 1 μM RNA conc. was used to assess compound effects on 3WJ stability. […] These conditions were used for screening test compounds.

Row | SMILES | Melt. Temp. with cmpd [°C] | Shift melt. Temp. | Temp. Shift
1 | CN(CCOCCN(C)C(=O)[C@@H]1C[C@H](N=[N+]=[N-])CN1C(=O)c1ccc2c(=O)oc(=O)[nH]c2c1)C(=O)CCC12c3cc(NC(=O)CCCCCCCN)ccc3C(c3ccc(NC(=O)CCCCCCCN)cc31)c1ccc(NC(=O)CCCCCCCN)cc12 [ARK000034, N,N′,N″-(9-(3-((2-(2-((2S,4S)-4-azido-1-(2,4-dioxo-1,4-dihydro-2H-benzo[d][1,3]oxazine-7-carbonyl)-N-methylpyrrolidine-2-carboxamido)ethoxy)ethyl)(methyl)amino)-3-oxopropyl)-9,10-dihydro-9,10-[1,2]benzenoanthracene-2,7,15-triyl)tris(8-aminooctanamide)] | 60.2 | +0.3 °C | 
2 | NCCCC[C@@H](N)C(=O)Nc1ccc2c(c1)C1c3cc(NC(=O)[C@H](N)CCCCN)ccc3C2c2ccc(NC(=O)[C@H](N)CCCCN)cc21 [ARK000016, (2R,2′R,2″R)—N,N′,N″-(9,10-dihydro-9,10-[1,2]benzenoanthracene-2,7,15-triyl)tris(2,6-diaminohexanamide)] | 83.8 | +21.3 °C | 
3 | CCOC(=O)c1ccccc1NC(=O)N1CCCN(Cc2csc(C)n2)CC1 [ARK000021] | 40.5 | −19.0 °C | 
4 | CN(CCOCCOCCNC(=O)CCC12c3cc(NC(=O)CCCCCCCN)ccc3C(c3ccc(NC(=O)CCCCCCCN)cc31)c1ccc(NC(=O)CCCCCCCN)cc12)C(=O)[C@@H]1C[C@H](N=[N+]=[N-])CN1C(=O)c1ccc(S(=O)(=O)F)cc1 [ARK000031, N,N′,N″-(9-(1-((2S,4S)-4-azido-1-(3-(4-(fluorosulfonyl)benzoyl)pyrrolidin-2-yl)-2,11-dimethyl-1,12-dioxo-5,8-dioxa-2,11-diazatetradecan-14-yl)-9,10-dihydro-9,10-[1,2]benzenoanthracene-2,7,15-triyl)tris(azanediyl))tris(8-aminooctanamide)] | 84.1 | +24.1 °C | +24.1 °C
5 | CN(CCOCCN(C)C(=O)[C@@H]1C[C@H](N=[N+]=[N-])CN1C(=O)c1ccc2c(=O)oc(=O)n(C)c2c1)C(=O)CCC12c3cc(NC(=O)CCCCCCCN)ccc3C(c3ccc(NC(=O)CCCCCCCN)cc31)c1ccc(NC(=O)CCCCCCCN)cc12 [ARK000033, N,N′,N″-(9-(3-((2-(2-((2S,4S)-4-azido-N-methyl-1-(1-methyl-2,4-dioxo-1,4-dihydro-2H-benzo[d][1,3]oxazine-7-carbonyl)pyrrolidine-2-carboxamido)ethoxy)ethyl)(methyl)amino)-3-oxopropyl)-9,10-dihydro-9,10-[1,2]benzenoanthracene-2,7,15-triyl)tris(8-aminooctanamide)] | 62.4 | +0.9 °C | 
6 | CC1(C)CC(Oc2ccc(-c3ccc(-c4cn[nH]c4)cc3O)nn2)CC(C)(C)N1 [ARK000010] | 61.4 | −0.2 °C | 
7 | CN(CCOCCOCCOCCNC(=O)CCC12c3cc(NC(=O)CCCCCCCN)ccc3C(c3ccc(NC(=O)CCCCCCCN)cc31)c1ccc(NC(=O)CCCCCCCN)cc12)C(=O)[C@@H]1C[C@H](N=[N+]=[N-])CN1C(=O)c1ccc(S(=O)(=O)F)cc1 [ARK000032, 4-((2S,4S)-4-azido-2-(methyl(12-methyl-13-oxo-15-(2,7,15-tris(8-aminooctanamido)-9,10-[1,2]benzenoanthracen-9(10H)-yl)-3,6,9-trioxa-12-azapentadecyl)carbamoyl)pyrrolidine-1-carbonyl)benzenesulfonyl fluoride] | 75.1 | +15.0 °C | +15.0 °C
8 | CN(CCOCCN(C)C(=O)[C@@H]1C[C@H](N=[N+]=[N-])CN1C(=O)c1ccc(S(=O)(=O)F)cc1)C(=O)CCC12c3cc(NC(=O)CCCCCCCN)ccc3C(c3ccc(NC(=O)CCCCCCCN)cc31)c1ccc(NC(=O)CCCCCCCN)cc12 [ARK000030] | 64.8 | +4.8 °C | 
9 | CC(C)(C)OC(=O)NCCCC[C@H](NC(=O)OC(C)(C)C)C(=O)Nc1ccc2c(c1)C1(CCC(=O)NCCOCCOCCN)c3cc(NC(=O)[C@@H](CCCCNC(=O)OC(C)(C)C)NC(=O)OC(C)(C)C)ccc3C2c2ccc(NC(=O)[C@@H](CCCCNC(=O)OC(C)(C)C)NC(=O)OC(C)(C)C)cc21 [ARK000023] | 60.7 | +0.6 °C | 
10 | CN(CCOCCOCCOCCNC(=O)CCC12c3cc(NC(=O)CCCCCCCN)ccc3C(c3ccc(NC(=O)CCCCCCCN)cc31)c1ccc(NC(=O)CCCCCCCN)cc12)C(=O)[C@@H]1C[C@H](N=[N+]=[N-])CN1C(=O)COc1ccc2c(=O)oc(=O)n(C)c2c1 [ARK000026, N,N′,N″-(9-(1-((2S,4S)-4-azido-1-(2-((1-methyl-2,4-dioxo-1,4-dihydro-2H-benzo[d][1,3]oxazin-7-yl)oxy)acetyl)pyrrolidin-2-yl)-2,14-dimethyl-1,15-dioxo-5,8,11-trioxa-2,14-diazaheptadecan-17-yl)-9,10-dihydro-9,10-[1,2]benzenoanthracene-2,7,15-triyl)tris(8-aminooctanamide)] | 60.9 | −1.2 °C | 
11 | N[C@@H](Cc1c[nH]cn1)C(=O)Nc1ccc2c(c1)C1c3cc(NC(=O)[C@@H](N)Cc4c[nH]cn4)ccc3C2c2ccc(NC(=O)[C@@H](N)Cc3cnc[nH]3)cc21 [ARK000017, (2S,2′S,2″S)—N,N′,N″-(9,10-dihydro-9,10-[1,2]benzenoanthracene-2,7,15-triyl)tris(2-amino-3-(1H-imidazol-4-yl)propanamide)hydrochloride] | 60.6 | −0.6 °C | 
12 | CN(CCOCCN(C)C(=O)[C@@H]1C[C@H](N=[N+]=[N-])CN1C(=O)CCc1ccc(S(=O)(=O)F)cc1)C(=O)CCC12c3cc(NC(=O)CCCCCCCN)ccc3C(c3ccc(NC(=O)CCCCCCCN)cc31)c1ccc(NC(=O)CCCCCCCN)cc12 [ARK000027] | 83.4 | +23.7 °C | 
13 | CN(CCOCCOCCNC(=O)CCC12c3cc(NC(=O)CCCCCCCN)ccc3C(c3ccc(NC(=O)CCCCCCCN)cc31)c1ccc(NC(=O)CCCCCCCN)cc12)C(=O)[C@@H]1C[C@H](N=[N+]=[N-])CN1C(=O)COc1ccc2c(=O)oc(=O)n(C)c2c1 [ARK000025, N,N′,N″-(9-(1-((2S,4S)-4-azido-1-(2-((1-methyl-2,4-dioxo-1,4-dihydro-2H-benzo[d][1,3]oxazin-7-yl)oxy)acetyl)pyrrolidin-2-yl)-2,11-dimethyl-1,12-dioxo-5,8-dioxa-2,11-diazatetradecan-14-yl)-9,10-dihydro-9,10-[1,2]benzenoanthracene-2,7,15-triyl)tris(8-aminooctanamide)] | 50.4 | −10.2 °C | 
14 | O=C(O)CCC12C3=C(CNCC3)C(c3ccccc31)c1ccccc12 [ARK000020] | 60.2 | +0.3 °C | 
15 | N[C@H](Cc1c[nH]cn1)C(=O)Nc1ccc2c(c1)C1c3cc(NC(=O)[C@H](N)Cc4c[nH]cn4)ccc3C2c2ccc(NC(=O)[C@H](N)Cc3cnc[nH]3)cc21 [ARK000018, (2R,2′R,2″R)—N,N′,N″-(9,10-dihydro-9,10-[1,2]benzenoanthracene-2,7,15-triyl)tris(2-amino-3-(1H-imidazol-4-yl)propanamide) hydrochloride] | 60.8 | +0.2 °C | 
16 | CN(c1ccc(-c2ccc(-c3cn[nH]c3)cc2O)nn1)C1CC(C)(C)NC(C)(C)C1 [ARK000011] | 60.3 | −1.4 °C | 
